Experimental data: patent US20170190671A1, “BIS(ARYL)CATECHOL DERIVATIVES AS HERBICIDES” (E I DU PONT DE NEMOURS AND COMPANY, priority 2014, published 2017)

Assays:
Format in all cases: in vivo
[1] = test system: barnyardgrass (Echinochloa crus-galli); assay: Test A postemergence; details: Echinochloa crus-galli, post-emergence, 240 h, 0 to 100 scale, read-out: Plant response rating, Barnyardgrass
In short: (§1)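 Pre- and postemergence greenhouse screen. Soil: loam + sand. Spray carrier: solvent mixture, non-phytotoxic, with surfactant. Post timing at 1–2 leaves, height 2–10 cm. Readout: visual injury on a 0–100 scale roughly 10 days after application, untreated plants as reference.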

[2] = test system: wheat (Triticum aestivum); assay: Test A postemergence; details: Triticum aestivum, post-emergence, 240 h, 0 to 100 scale, read-out: Plant response rating, Wheat
In short: as §1

[3] = test system: ragweed (common ragweed, Ambrosia elatior); assay: Test A postemergence; details: Ambrosia artemisiifolia, post-emergence, 240 h, 0 to 100 scale, read-out: Plant response rating, Ragweed
In short: as §1

[4] = test system: galium (catchweed bedstraw, Galium aparine); assay: Test A postemergence; details: Galium, post-emergence, 240 h, 0 to 100 scale, read-out: Plant response rating, Galium
In short: as §1

corn (Zea mays) = assay: Test A postemergence; details: Zea mays, post-emergence, 240 h, 0 to 100 scale
In short: as §1

[5] = test system: pigweed (Amaranthus retroflexus); assay: Test A postemergence; details: Amaranthus retroflexus, post-emergence, 240 h, 0 to 100 scale, read-out: Plant response rating, Pigweed
In short: as §1

kochia (Kochia scoparia) [6] = assay: Test A postemergence; details: Bassia scoparia, post-emergence, 240 h, 0 to 100 scale, read-out: Plant response rating, Kochia
In short: as §1

[7] = test system: Italian ryegrass (Lolium multiflorum); assay: Test A postemergence; details: Lolium multiflorum, post-emergence, 240 h, 0 to 100 scale, read-out: Plant response rating, Ryegrass, Italian
In short: as §1

[8] = test system: giant foxtail (Setaria faberii); assay: Test A postemergence; details: Setaria faberi, post-emergence, 240 h, 0 to 100 scale, read-out: Plant response rating, Foxtail, Giant
In short: as §1

[9] = test system: blackgrass (Alopecurus myosuroides); assay: Test A postemergence; details: Alopecurus myosuroides, post-emergence, 240 h, 0 to 100 scale, read-out: Plant response rating, Blackgrass
In short: as §1

[10] = test system: barnyardgrass (Echinochloa crus-galli); assay: Test B flooded paddy; details: Echinochloa crus-galli, 336 h; 250 g ai/ha, Flood, 13 to 15 days, scale 0 (no effect) to 100 (complete control); read-out: Plant response rating, Barnyardgrass
In short: (§2)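 Test compounds are applied straight into paddy water held 3 cm above the soil surface, with that flood maintained for the whole test. After 13 to 15 days in the greenhouse, each species is scored visually relative to controls.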

[11] = test system: ducksalad (Heteranthera limosa); assay: Test B flooded paddy; details: Heteranthera limosa, 336 h; 250 g ai/ha, Flood, 13 to 15 days, scale 0 (no effect) to 100 (complete control); read-out: Plant response rating, Ducksalad
In short: as §2

[12] = test system: sedge, umbrella (small-flower umbrella sedge, Cyperus difformis); assay: Test B flooded paddy; details: Cyperus difformis, 336 h; 250 g ai/ha, Flood, 13 to 15 days, scale 0 (no effect) to 100 (complete control); read-out: Plant response rating, Sedge, Umbrella
In short: as §2

rice (Oryza sativa) = assay: Test B flooded paddy; details: Oryza sativa, 336 h; 250 g ai/ha, Flood, 13 to 15 days, scale 0 (no effect) to 100 (complete control); read-out: Plant response rating, Rice
In short: as §2

[13] = test system: galium (catchweed bedstraw, Galium aparine); assay: Test C preemergence; details: Galium, pre-emergence, 336 h, scale 0 to 100, read-out: Plant response rating, Galium
In short: (§3)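 Seeds in loam-sand soil were treated preemergence, and plants at the 1- to 4-leaf stage (2-18 cm) in peat-based medium were sprayed postemergence, with test chemicals in a non-phytotoxic solvent containing surfactant. After 13-15 days in a greenhouse, response was rated visually against controls from 0 (no effect) to 100 (complete control).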

[14] = test system: lambsquarters (Chenopodium album); assay: Test C preemergence; details: Chenopodium album, pre-emergence, 336 h, scale 0 to 100, read-out: Plant response rating, Lambsquarters
In short: as §3

[15] = test system: yellow nutsedge (Cyperus esculentus); assay: Test C preemergence; details: Cyperus, pre-emergence, 336 h, scale 0 to 100, read-out: Plant response rating, Nutsedge, Yellow
In short: as §3

[16] = test system: barnyardgrass (Echinochloa crus-galli); assay: Test A preemergence; details: Echinochloa crus-galli, pre-emergence, 240 h, 0 to 100 scale (0 no effect, 100 complete control), read-out: Barnyardgrass plant response rating
In short: as §1

[17] = test system: ragweed (common ragweed, Ambrosia elatior); assay: Test A preemergence; details: Ambrosia artemisiifolia, pre-emergence, 240 h, 0 to 100 scale (0 no effect, 100 complete control), read-out: Ragweed plant response rating
In short: as §1

[18] = test system: pigweed (Amaranthus retroflexus); assay: Test A preemergence; details: Amaranthus retroflexus, pre-emergence, 240 h, 0 to 100 scale (0 no effect, 100 complete control), read-out: Pigweed plant response rating
In short: as §1

kochia (Kochia scoparia) [19] = assay: Test A preemergence; details: Bassia scoparia, pre-emergence, 240 h, 0 to 100 scale (0 no effect, 100 complete control), read-out: Kochia plant response rating
In short: as §1

[20] = test system: Italian ryegrass (Lolium multiflorum); assay: Test A preemergence; details: Lolium multiflorum, pre-emergence, 240 h, 0 to 100 scale (0 no effect, 100 complete control), read-out: Ryegrass, Italian plant response rating
In short: as §1

[21] = test system: giant foxtail (Setaria faberii); assay: Test A preemergence; details: Setaria faberi, pre-emergence, 240 h, 0 to 100 scale (0 no effect, 100 complete control), read-out: Foxtail, Giant plant response rating
In short: as §1

N#Cc1cccc(Oc2ncc(C(F)(F)F)cn2)c1Oc1ncc(Cl)cn1 [Compound 39, 2-[(5-chloro-2-pyrimidinyl)oxy]-3-[[5-(trifluoromethyl)-2-pyrimidinyl]oxy]-benzonitrile] showed a pest or weed control at 31 g/ha ([1]; 31 g ai/ha) of 90%, a pest or weed control at 125 g/ha ([1]; 125 g ai/ha) of 90% and a plant injury at 31 g/ha ([2]; 31 g ai/ha) of 10%. It also gave a plant injury at 125 g/ha ([2]; 125 g ai/ha) of 90%, a pest or weed control at 31 g/ha ([3]; 31 g ai/ha) of 40% and a pest or weed control at 125 g/ha ([3]; 125 g ai/ha) of 60%. For the same compound, the pest or weed control at 31 g/ha ([4]; 31 g ai/ha) was 100%, the pest or weed control at 125 g/ha ([4]; 125 g ai/ha) was 100% and the Corn plant response rating (crop injury, 0 = no effect, 100 = complete kill) at 31 g/ha (corn (Zea mays); 31 g ai/ha) was 60%. For the same compound, the Corn plant response rating (crop injury, 0 = no effect, 100 = complete kill) at 125 g/ha (corn (Zea mays); 125 g ai/ha) was 100%, the pest or weed control at 31 g/ha ([5]; 31 g ai/ha) was 100% and the pest or weed control at 125 g/ha ([5]; 125 g ai/ha) was 100%. For the same compound, the pest or weed control at 31 g/ha (kochia (Kochia scoparia) [6]; 31 g ai/ha) was 100%, the pest or weed control at 125 g/ha (kochia (Kochia scoparia) [6]; 125 g ai/ha) was 100% and the pest or weed control at 31 g/ha ([7]; 31 g ai/ha) was 40%. For the same compound, the pest or weed control at 125 g/ha ([7]; 125 g ai/ha) was 90%, the pest or weed control at 31 g/ha ([8]; 31 g ai/ha) was 100% and the pest or weed control at 125 g/ha ([8]; 125 g ai/ha) was 100%. For the same compound, the pest or weed control at 31 g/ha ([9]; 31 g ai/ha) was 80%, the pest or weed control at 125 g/ha ([9]; 125 g ai/ha) was 100% and the pest or weed control at 250 g/ha [10] was 50%. It also gave a pest or weed control at 250 g/ha [11] of 100%, a pest or weed control at 250 g/ha [12] of 100% and a plant injury at 250 g/ha (rice (Oryza sativa)) of 50%. For the same compound, the pest or weed control at 31 g/ha ([13]; 31 g ai/ha, preemergence) was 90%, the pest or weed control at 62 g/ha ([13]; 62 g ai/ha, preemergence) was 85% and the pest or weed control at 125 g/ha ([13]; 125 g ai/ha, preemergence) was 100%. The pest or weed control at 16 g/ha ([13]; Preemergence, 16 g ai/ha) was 85%, the pest or weed control at 31 g/ha ([14]; 31 g ai/ha, preemergence) was 90% and the pest or weed control at 62 g/ha ([14]; 62 g ai/ha, preemergence) was 98%. The pest or weed control at 125 g/ha ([14]; 125 g ai/ha, preemergence) was 95%, the pest or weed control at 16 g/ha ([14]; Preemergence, 16 g ai/ha) was 60% and the pest or weed control at 31 g/ha ([15]; 31 g ai/ha, preemergence) was 20%. For the same compound, the pest or weed control at 62 g/ha ([15]; 62 g ai/ha, preemergence) was 85%, the pest or weed control at 125 g/ha ([15]; 125 g ai/ha, preemergence) was 85% and the pest or weed control at 16 g/ha ([15]; Preemergence, 16 g ai/ha) was 0%. It also gave a pest or weed control at 31 g/ha ([16]; 31 g ai/ha) of 80%, a pest or weed control at 125 g/ha ([16]; 125 g ai/ha) of 100% and a pest or weed control at 31 g/ha ([17]; 31 g ai/ha) of 0%. For the same compound, the pest or weed control at 125 g/ha ([17]; 125 g ai/ha) was 40%, the pest or weed control at 31 g/ha ([18]; 31 g ai/ha) was 100% and the pest or weed control at 125 g/ha ([18]; 125 g ai/ha) was 100%. The pest or weed control at 31 g/ha (kochia (Kochia scoparia) [19]; 31 g ai/ha) was 90%, the pest or weed control at 125 g/ha (kochia (Kochia scoparia) [19]; 125 g ai/ha) was 100% and the pest or weed control at 31 g/ha ([20]; 31 g ai/ha) was 10%. For the same compound, the pest or weed control at 125 g/ha ([20]; 125 g ai/ha) was 90%, the pest or weed control at 31 g/ha ([21]; 31 g ai/ha) was 100% and the pest or weed control at 125 g/ha ([21]; 125 g ai/ha) was 100%.
